For 21 compounds, IC50 results are on record in patent US20160244436A1, “NOVEL FUNCTIONALIZED 5-(PHENOXYMETHYL)-1,3-DIOXANE ANALOGS EXHIBITING CYTOCHROME P450 INHIBITION AND THEIR METHOD OF USE” (CORTENDO AB (PUBL), priority 2013, published 2016).

What all share (format): cell-based
One experiment addresses T1, recombinant CYP-11 (Homo sapiens, UniProt P15538).
T1 construct: expressed in transfected cells; host or cells: AD293
T1 sequence (P15538 25-503): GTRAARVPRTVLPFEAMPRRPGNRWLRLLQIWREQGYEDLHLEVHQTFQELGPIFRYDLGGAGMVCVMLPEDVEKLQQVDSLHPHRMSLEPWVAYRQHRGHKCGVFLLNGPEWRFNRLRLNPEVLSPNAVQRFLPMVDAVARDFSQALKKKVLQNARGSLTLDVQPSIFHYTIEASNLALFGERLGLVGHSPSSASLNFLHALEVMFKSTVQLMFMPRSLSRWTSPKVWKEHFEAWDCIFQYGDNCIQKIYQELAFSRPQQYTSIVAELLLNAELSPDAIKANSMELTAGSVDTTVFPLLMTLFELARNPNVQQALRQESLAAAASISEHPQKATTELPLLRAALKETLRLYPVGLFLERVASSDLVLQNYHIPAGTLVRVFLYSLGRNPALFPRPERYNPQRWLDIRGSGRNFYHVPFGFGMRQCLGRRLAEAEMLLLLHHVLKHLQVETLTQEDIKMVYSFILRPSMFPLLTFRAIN
Kind of experiment: Cyp11 assay: AD293 cells over-expressing recombinant CYP-11, cortisol formation from 11-deoxycortisol by LC/MS. The method, then:
Cyp11 assay protocol: AD293 cells that stably over-express recombinant CYP-11 were seeded in 96 well plates coated with poly D-lysine (15,000 cell per well) and incubated at 37° C. for 24 hours in Dulbecco's Modified Eagle Medium (DMEM) with Fetal Bovine Serum (FBS) that is stripped of hormones by charcoal treatment. The media is then removed, the cells are washed once with Phosphate buffer saline solution, and 50 μL Dulbecco's Modified Eagle Medium (DMEM) with Fetal Bovine Serum (FBS) that is stripped of hormones by charcoal treatment is added. Compounds of the disclosure are then added to the wells in eight concentration spanning 10 μM to 4.5 nM, and the plates are incubated for an additional 60 minutes at 37° C. 11-deoxycortisol is then added (2.0 μM) and the plates are incubated for an additional 12 hours at 37° C. After incubation, 50 uL of the supernatant (medium) is transferred into a fresh plate and 150 uL of an acetonitrile solution containing 200 ng/ml of Telmisartan is added. The sample is mixed and then placed in a centrifuge at 2000 rpm for 5 minutes. 100 uL of the supernatant is transferred into a fresh 96 well deep well plate, 100 uL of 1:1 methanol:water was added, the solution was mixed and then analyzed by LC/MS for the presence of cortisol using an Agilent 1200 RRLC/ABSCIEX API4000 LC-MS or Shimadzu Prominance/ABSCIEX API4000 LC-MS to determine IC5os of the compounds of the disclosure.

The target of another experiment is T2, recombinant CYP-21 (Homo sapiens, UniProt P08686).
T2 construct: expressed in transfected cells; host or cells: AD293
T2 sequence (P08686 1-495): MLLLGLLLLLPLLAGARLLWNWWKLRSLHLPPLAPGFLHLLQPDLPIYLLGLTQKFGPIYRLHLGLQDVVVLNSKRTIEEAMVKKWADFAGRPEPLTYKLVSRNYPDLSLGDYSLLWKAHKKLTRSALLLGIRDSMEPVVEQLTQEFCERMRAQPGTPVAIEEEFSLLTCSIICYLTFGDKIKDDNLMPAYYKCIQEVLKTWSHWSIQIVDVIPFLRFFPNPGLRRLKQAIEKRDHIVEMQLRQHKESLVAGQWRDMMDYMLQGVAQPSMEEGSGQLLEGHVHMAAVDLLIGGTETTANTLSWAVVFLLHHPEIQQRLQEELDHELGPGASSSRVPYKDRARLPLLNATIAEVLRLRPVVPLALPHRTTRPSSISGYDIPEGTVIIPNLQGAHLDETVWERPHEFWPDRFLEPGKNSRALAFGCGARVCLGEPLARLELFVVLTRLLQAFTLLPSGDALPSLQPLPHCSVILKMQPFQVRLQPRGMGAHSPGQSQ
Kind of experiment: Cyp21 assay: AD293 cells over-expressing recombinant CYP-21, 11-deoxycortisol formation from 17α-OH Progesterone by LC/MS. The method, then: Cyp21 assay protocol: AD293 cells that stably over-express recombinant CYP-21 were seeded in 96 well plates coated with poly D-lysine (10,000 cell per well) and incubated at 37° C. for 24 hours in Dulbecco's Modified Eagle Medium (DMEM) with Fetal Bovine Serum (FBS) that is stripped of hormones by charcoal treatment. The media is then removed, the cells are washed once with Phosphate buffer saline solution, and 50 μL Dulbecco's Modified Eagle Medium (DMEM) with Fetal Bovine Serum (FBS) that is stripped of hormones by charcoal treatment is added. Compounds of the disclosure are then added to the wells in eight concentration spanning 10 μM to 4.5 nM, and the plates are incubated for an additional 60 minutes at 37° C. 17α-OH Progesterone is then added (1.0 μM) and the plates are incubated for an additional 45 minutes at 37° C. After incubation, 50 uL of the supernatant (medium) is transferred into a fresh plate and 150 uL of an acetonitrile solution containing 200 ng/ml of Telmisartan is added. The sample is mixed and then placed in a centrifuge at 2000 rpm for 5 minutes. 100 uL of the supernatant is transferred into a fresh 96 well deep well plate, 100 uL of 1:1 methanol:water was added, the solution was mixed and then analyzed by LC/MS for the presence of 11-deoxycortisol using an Agilent 1200 RRLC/ABSCIEX API4000 LC-MS or Shimadzu Prominance/ABSCIEX API4000 LC-MS to determine IC5os of the compounds of the disclosure.

The target of a further experiment is T3, recombinant CYP-17 (Homo sapiens, UniProt P05093).
T3 construct: expressed in transfected cells; host or cells: AD293
T3 sequence (P05093 1-508): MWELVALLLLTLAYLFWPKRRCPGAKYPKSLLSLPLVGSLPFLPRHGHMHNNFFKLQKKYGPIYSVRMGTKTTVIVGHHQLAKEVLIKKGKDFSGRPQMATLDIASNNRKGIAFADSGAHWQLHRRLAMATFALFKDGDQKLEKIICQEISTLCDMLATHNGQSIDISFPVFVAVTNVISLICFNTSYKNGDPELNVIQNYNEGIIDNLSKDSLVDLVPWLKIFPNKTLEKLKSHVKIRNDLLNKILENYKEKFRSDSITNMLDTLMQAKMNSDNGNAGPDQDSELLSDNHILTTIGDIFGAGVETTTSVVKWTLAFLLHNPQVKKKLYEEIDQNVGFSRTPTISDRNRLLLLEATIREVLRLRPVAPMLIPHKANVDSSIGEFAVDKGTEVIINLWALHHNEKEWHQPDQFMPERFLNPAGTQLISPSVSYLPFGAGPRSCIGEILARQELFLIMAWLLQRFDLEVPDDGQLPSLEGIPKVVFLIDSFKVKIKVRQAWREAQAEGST
Kind of experiment: Cyp17 assay: AD293 cells over-expressing recombinant CYP-17, 3H-acetic acid release from [21-3H] 17α-hydroxyl-Pregnenolone. The method, then:
Cyp17 assay protocol: AD293 cells that stably over-express recombinant CYP-17 were seeded in 96 well plates coated with poly D-lysine (15,000 cell per well) and incubated at 37° C. for 24 hours in Dulbecco's Modified Eagle Medium (DMEM) with Fetal Bovine Serum (FBS) that is stripped of hormones by charcoal treatment. The media is then removed, the cells are washed once with Phosphate buffer saline solution, and 50 μL Dulbecco's Modified Eagle Medium (DMEM) with Fetal Bovine Serum (FBS) that is stripped of hormones by charcoal treatment is added. Compounds of the disclosure are then added to the wells in eight concentration spanning 10 μM to 4.5 nM, and the plates are incubated for an additional 60 minutes at 37° C. [21-^3H] 17α-hydroxyl-Pregnenolone is then added (50 nCi per well, 31.25 nM) and the plates are incubated for an additional 4 hours at 37° C. The media is then collected, 200 μL, of chloroform is added, and the mixture is shaken for 1 hour. The aqueous layer is then separated and analyzed for the presence of ^3H-acetic acid using a Perkin Elmer Topcount NXT to determine IC50s of the compounds of the disclosure.

With `CC(=O)N1CCN(c2ccc(CO[C@H]3CO[C@](Cn4ccnc4)(c4ccccc4Cl)OC3)cc2)CC1` [Example 500003], the figures for the IC50 on recombinant CYP-11, at recombinant CYP-21 and at recombinant CYP-17 were 521 nM, 1480 nM and 146 nM, respectively.

As for `CC(=O)N1CCN(c2ccc(CO[C@H]3CO[C@@](Cn4ccnc4)(c4ccccc4Cl)OC3)cc2)CC1` [Example 500004], at recombinant CYP-17, the IC50 is ≥ 10000 nM.

Take `Clc1ccccc1[C@]1(Cn2ccnc2)OC[C@@H](OCc2ccc(N3CCOCC3)cc2)CO1` [Example 500005]: the concentration for half-maximal inhibition (IC50) on recombinant CYP-21 was determined as 960 nM; on recombinant CYP-17, 260 nM.

`Clc1ccccc1[C@]1(Cn2ccnc2)OC[C@H](OCc2ccc(N3CCOCC3)cc2)CO1` [Example 500006]: the figures for the half-inhibitory concentration (IC50) at recombinant CYP-21 and at recombinant CYP-17 were 4760 nM and 8000 nM, respectively.

On to `CS(=O)(=O)N1CCN(c2ccc(CO[C@H]3CO[C@](Cn4ccnc4)(c4ccccc4Cl)OC3)cc2)CC1` [Example 500012], for which the concentration for half-maximal inhibition (IC50) at recombinant CYP-11 was determined as 100 nM; at recombinant CYP-21, 1520 nM; at recombinant CYP-17, 12 nM.

On to `CS(=O)(=O)N1CCN(c2ccc(CO[C@H]3CO[C@@](Cn4ccnc4)(c4ccccc4Cl)OC3)cc2)CC1` [Example 500013], for which the figures for the IC50 on recombinant CYP-21 and at recombinant CYP-17 were 2500 nM and 1500 nM, respectively.

On to `CC(=O)N1CCN(c2ccc(CO[C@H]3CO[C@](Cn4ccnc4)(c4ccc(Cl)cc4Cl)OC3)cc2)CC1` [Example 500015], for which the half-inhibitory concentration (IC50) came out at 12 nM on recombinant CYP-11, 208 nM on recombinant CYP-21 and 8 nM on recombinant CYP-17.

As to `N#Cc1cccc(S(=O)(=O)N2CCN(c3ccc(CO[C@H]4CO[C@](Cn5ccnc5)(c5ccc(Cl)cc5Cl)OC4)cc3)CC2)c1` [Example 500016], the half-maximal inhibitory concentration (IC50) amounted to 37 nM at recombinant CYP-11, 415 nM on recombinant CYP-21 and 75 nM on recombinant CYP-17.

Turning to `O=S(=O)(CCCCl)N1CCN(c2ccc(CO[C@H]3CO[C@](Cn4ccnc4)(c4ccc(Cl)cc4Cl)OC3)cc2)CC1` [Example 500017], the results for the half-inhibitory concentration (IC50) on recombinant CYP-11, at recombinant CYP-21 and on recombinant CYP-17 were 27 nM, 1100 nM and 106 nM, respectively.

For `O=S(=O)(C1CC1)N1CCN(c2ccc(CO[C@H]3CO[C@](Cn4ccnc4)(c4ccc(Cl)cc4Cl)OC3)cc2)CC1` [Example 500018], the IC50 at recombinant CYP-11 was 6 nM; at recombinant CYP-21, 262 nM; at recombinant CYP-17 it was 11 nM.

On to `CC(=O)N1CCN(c2ccc(CO[C@H]3CO[C@@](Cn4ccnc4)(c4ccc(Cl)cc4Cl)OC3)cc2)CC1` [Example 500019], for which the IC50 came to 12 nM on recombinant CYP-11 and 1100 nM at recombinant CYP-17.

`CC(C)S(=O)(=O)N1CCN(c2ccc(CO[C@H]3CO[C@](Cn4ccnc4)(c4ccc(Cl)cc4Cl)OC3)cc2)CC1` [Example 500020]: the IC50 on recombinant CYP-11 was determined as 25 nM; on recombinant CYP-21, 110 nM; on recombinant CYP-17 it was 11 nM.

Consider `CCS(=O)(=O)N1CCN(c2ccc(CO[C@H]3CO[C@](Cn4ccnc4)(c4ccc(Cl)cc4Cl)OC3)cc2)CC1` [Example 500021], for which the results for the IC50 at recombinant CYP-11, at recombinant CYP-21 and on recombinant CYP-17 were 200 nM, 130 nM and 9 nM, respectively.

In the case of `O=S(=O)(c1cccc(OC(F)(F)F)c1)N1CCN(c2ccc(CO[C@H]3CO[C@](Cn4ccnc4)(c4ccc(Cl)cc4Cl)OC3)cc2)CC1` [Example 500022], the results for the concentration for half-maximal inhibition (IC50) at recombinant CYP-11, at recombinant CYP-21 and on recombinant CYP-17 were 13 nM, 170 nM and 101 nM, respectively.

In the case of `O=S(=O)(c1c[nH]cn1)N1CCN(c2ccc(CO[C@H]3CO[C@](Cn4ccnc4)(c4ccc(Cl)cc4Cl)OC3)cc2)CC1` [Example 500023], the IC50 on recombinant CYP-11 is 14 nM; on recombinant CYP-21, 426 nM; on recombinant CYP-17 it was 67 nM.

For the compound `Clc1ccc([C@]2(Cn3ccnc3)OC[C@@H](OCc3ccc(-c4ccncc4)cc3)CO2)c(Cl)c1` [Example 500024], the results for the 50% inhibitory concentration (IC50) at recombinant CYP-11, at recombinant CYP-21 and at recombinant CYP-17 were 23 nM, 68 nM and 33 nM, respectively.

Regarding `O=S(=O)(c1cccnc1)N1CCN(c2ccc(CO[C@H]3CO[C@](Cn4ccnc4)(c4ccc(Cl)cc4Cl)OC3)cc2)CC1` [Example 500025], the values for the IC50 on recombinant CYP-11, at recombinant CYP-21 and on recombinant CYP-17 were 12 nM, 273 nM and 13 nM, respectively.

In the case of `COCCOC(=O)N1CCN(c2ccc(CO[C@H]3CO[C@@](Cn4ccnc4)(c4ccccc4Cl)OC3)cc2)CC1` [Example 510012], the IC50 is 800 nM on recombinant CYP-21 and 2500 nM on recombinant CYP-17.

Regarding `CN(C)C(=O)N1CCN(c2ccc(CO[C@H]3CO[C@](Cn4ccnc4)(c4ccccc4Cl)OC3)cc2)CC1` [Example 510013], the half-inhibitory concentration (IC50) on recombinant CYP-11 turned out to be 70 nM; on recombinant CYP-21 it was 800 nM; at recombinant CYP-17, 27 nM.

As to `COCCOC(=O)N1CCN(c2ccc(CO[C@H]3CO[C@](Cn4ccnc4)(c4ccccc4Cl)OC3)cc2)CC1` [Example 510014], the IC50 on recombinant CYP-11 amounted to 140 nM; on recombinant CYP-21, 570 nM; at recombinant CYP-17 it was 20 nM.

Consider `CCOC(=O)CNC(=O)N1CCN(c2ccc(CO[C@H]3CO[C@@](Cn4ccnc4)(c4ccccc4Cl)OC3)cc2)CC1` [Example 510019], for which the 50% inhibitory concentration (IC50) is 5800 nM on recombinant CYP-11 and ≥ 10000 nM at recombinant CYP-17.
